Laboratory results published in ChEMBL document CHEMBL1201862, “PubChem BioAssay data set” (2004).
Several values for one entry are separate records, joined by “and”; a condition that tells them apart may be missing. Identical values can stand only once.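 Where inhibition never reached the appropriate level, the endpoint shown equals the highest concentration tested. Otherwise, values were interpolated linearly from a five-concentration, 48-hour dose response in 96-well plates. Abbreviation: GI50, concentration required for 50% inhibition of growth.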 Activity calls are given as the source filed them. Rule as the data show it: active = GI50 up to about 1.1 µM and inactive = higher. Where a SMILES comes first, the peptide text is derived from it. The star is where a group is joined. Boc = CC(C)(C)OC(=O)*; OSu = O=C1CCC(=O)N1O*

How the values were obtained:
Experiment in all cases: NCI-60 cell line screen, 48 h
DU-145 = tested on: DU-145
SF-268 = tested on: SF-268
NCI-H460 = tested on: NCI-H460
UACC-62 = tested on: UACC-62
HL-60 = tested on: HL-60
NCI/ADR-RES = tested on: NCI/ADR-RES
SNB-75 = tested on: SNB-75
K562 = tested on: K562
IGROV-1 = tested on: IGROV-1
SF-539 = tested on: SF-539
SW-620 = tested on: SW-620
SNB-19 = tested on: SNB-19
MOLT-4 = tested on: MOLT-4
A549 = tested on: A549
MDA-MB-435 = tested on: MDA-MB-435
BT-549 = tested on: BT-549
RXF 393 = tested on: RXF 393
SR = tested on: SR
PC-3 = tested on: PC-3
SK-MEL-28 = tested on: SK-MEL-28

Compound	GI50 (DU-145)	GI50 (SF-268)	GI50 (NCI-H460)	GI50 (UACC-62)	GI50 (HL-60)	GI50 (NCI/ADR-RES)	GI50 (SNB-75)	GI50 (K562)	GI50 (IGROV-1)	GI50 (SF-539)	GI50 (SW-620)	GI50 (SNB-19)	GI50 (MOLT-4)	GI50 (A549)	GI50 (MDA-MB-435)	GI50 (BT-549)	GI50 (RXF 393)	GI50 (SR)	GI50 (PC-3)	GI50 (SK-MEL-28)
Cc1nn(C(=O)c2ccc(Cl)cc2)c2c1C(c1ccccc1[N+](=O)[O-])SC(=N)N2 (stereo unspecified)	> 10 µM (inactive)	> 10 µM (inactive)	> 10 µM (inactive)	> 10 µM (inactive)	> 10 µM (inactive)	> 10 µM (inactive)	> 10 µM (inactive)	> 10 µM (inactive)	> 10 µM (inactive)	> 10 µM (inactive)	> 10 µM (inactive)	> 10 µM (inactive)	> 10 µM (inactive)	> 10 µM (inactive)	> 10 µM (inactive)	> 10 µM (inactive)	0.569 µM (active)	> 10 µM (inactive)	> 10 µM (inactive)	–
BrCC[P+](c1ccccc1)(c1ccccc1)c1ccccc1	6.49 µM (inactive)	2.13 µM (inactive)	19.5 µM (inactive)	6.58 µM (inactive)	2.25 µM (inactive)	6.31 µM (inactive)	3.23 µM (inactive)	1.77 µM (inactive)	13.3 µM (inactive)	15 µM (inactive)	2.51 µM (inactive)	21.4 µM (inactive)	4.43 µM (inactive)	1.91 µM (inactive)	2.84 µM (inactive)	14.9 µM (inactive)	2.43 µM (inactive)	4.93 µM (inactive)	5.21 µM (inactive)	4.89 µM (inactive)
CCCC(CCC(=O)O)(CCC(=O)O)[N+](=O)[O-]	> 100 µM (inactive)	> 100 µM (inactive)	> 100 µM (inactive)	> 100 µM (inactive)	> 100 µM (inactive)	> 100 µM (inactive)	> 100 µM (inactive)	> 100 µM (inactive)	> 100 µM (inactive)	> 100 µM (inactive)	> 100 µM (inactive)	> 100 µM (inactive)	> 100 µM (inactive)	> 100 µM (inactive)	> 100 µM (inactive)	> 100 µM (inactive)	> 100 µM (inactive)	> 100 µM (inactive)	> 100 µM (inactive)	–
CC(=O)Nc1nc(C)c(S(=O)(=O)NC(=O)NC2NC(=O)NC2=O)s1 (stereo unspecified)	> 100 µM (inactive)	> 100 µM (inactive)	> 100 µM (inactive)	> 100 µM (inactive)	> 100 µM (inactive)	> 100 µM (inactive)	> 100 µM (inactive)	> 100 µM (inactive)	> 100 µM (inactive)	> 100 µM (inactive)	> 100 µM (inactive)	> 100 µM (inactive)	> 100 µM (inactive)	> 100 µM (inactive)	> 100 µM (inactive)	> 100 µM (inactive)	> 100 µM (inactive)	> 100 µM (inactive)	> 100 µM (inactive)	> 100 µM (inactive)
COc1cc(S(=O)(=O)Nc2ccc(-c3csc(N4C(=O)C(C)SC4c4ccccc4)n3)cc2)ccc1Cl (stereo unspecified)	40.2 µM (inactive)	19.7 µM (inactive)	–	21.4 µM (inactive)	21.1 µM (inactive)	> 100 µM (inactive)	0.0555 µM (active)	30.6 µM (inactive)	17.5 µM (inactive)	13.4 µM (inactive)	35.4 µM (inactive)	35.7 µM (inactive)	33 µM (inactive)	> 100 µM (inactive)	24.6 µM (inactive)	20.9 µM (inactive)	15.5 µM (inactive)	25 µM (inactive)	19.9 µM (inactive)	24.7 µM (inactive)
CSc1ccc(/C=C2\N=C(c3ccccc3)N(c3nc4cc(C)c(C)cc4s3)C2=O)cc1	49.7 µM (inactive)	34.8 µM (inactive)	36.3 µM (inactive)	28.1 µM (inactive)	20.9 µM (inactive)	31.3 µM (inactive)	28.8 µM (inactive)	43.4 µM (inactive)	15.8 µM (inactive)	21.3 µM (inactive)	17.9 µM (inactive)	30.2 µM (inactive)	61.9 µM (inactive)	30.1 µM (inactive)	12.9 µM (inactive)	28.2 µM (inactive)	25 µM (inactive)	25 µM (inactive)	22.4 µM (inactive)	49.7 µM (inactive)
CC(NC(=O)C(NC(=O)OC(C)(C)C)C(C)C)C(=O)NCC(=O)ON1C(=O)CCC1=O (stereo not drawn) (Boc-Val-Ala-Gly-OSu; configuration not given here)	> 100 µM (inactive)	> 100 µM (inactive)	> 100 µM (inactive)	> 100 µM (inactive)	–	> 100 µM (inactive)	> 100 µM (inactive)	> 100 µM (inactive)	> 100 µM (inactive)	> 100 µM (inactive)	> 100 µM (inactive)	> 100 µM (inactive)	45.9 µM (inactive)	> 100 µM (inactive)	> 100 µM (inactive)	> 100 µM (inactive)	> 100 µM (inactive)	> 100 µM (inactive)	> 100 µM (inactive)	> 100 µM (inactive)
CN1CCN(c2n[nH]c(=O)c3c2nnn3Cc2ccccc2)CC1	> 100 µM (inactive)	> 100 µM (inactive)	> 100 µM (inactive)	–	> 100 µM (inactive)	> 100 µM (inactive)	> 100 µM (inactive)	> 100 µM (inactive)	–	–	–	> 100 µM (inactive)	> 100 µM (inactive)	> 100 µM (inactive)	> 100 µM (inactive)	41.5 µM (inactive)	86.7 µM (inactive)	> 100 µM (inactive)	5.89 µM (inactive)	> 100 µM (inactive)
N#CCCC(C=O)(CCC#N)CCC#N	> 100 µM (inactive)	> 100 µM (inactive)	> 100 µM (inactive)	> 100 µM (inactive)	> 100 µM (inactive)	> 100 µM (inactive)	> 100 µM (inactive)	> 100 µM (inactive)	> 100 µM (inactive)	> 100 µM (inactive)	> 100 µM (inactive)	> 100 µM (inactive)	–	> 100 µM (inactive)	> 100 µM (inactive)	> 100 µM (inactive)	> 100 µM (inactive)	> 100 µM (inactive)	> 100 µM (inactive)	> 100 µM (inactive)
COC1=CC(=O)C2=C(C1=O)[C@H]1CC[C@]3(C)[C@@H](OC(C)=O)CC[C@H]3[C@@H]1CC2	67.8 µM (inactive)	42.1 µM (inactive)	71 µM (inactive)	–	16.4 µM (inactive)	32.7 µM (inactive)	> 100 µM (inactive)	44.4 µM (inactive)	25.2 µM (inactive)	75.3 µM (inactive)	> 100 µM (inactive)	> 100 µM (inactive)	20.2 µM (inactive)	> 100 µM (inactive)	19.2 µM (inactive)	> 100 µM (inactive)	61.2 µM (inactive)	37.4 µM (inactive)	39.9 µM (inactive)	> 100 µM (inactive)
O=S(=O)(c1ccccc1)[C@@H]1[C@H]2C=C[C@](CS)(O2)[C@H]1S(=O)(=O)c1ccccc1	> 100 µM (inactive)	> 100 µM (inactive)	> 100 µM (inactive)	> 100 µM (inactive)	32.8 µM (inactive)	53.5 µM (inactive)	67.5 µM (inactive)	14.4 µM (inactive)	> 100 µM (inactive)	–	12.4 µM (inactive)	> 100 µM (inactive)	16.5 µM (inactive)	> 100 µM (inactive)	46.2 µM (inactive)	35.2 µM (inactive)	43.6 µM (inactive)	25.6 µM (inactive)	35.6 µM (inactive)	> 100 µM (inactive)
COc1ccc(/C=C2/N/C(=N\N=C/C(O)C(O)C(O)C(O)CO)NC2=O)cc1 (stereo unspecified)	> 100 µM (inactive)	> 100 µM (inactive)	> 100 µM (inactive)	–	33 µM (inactive)	> 100 µM (inactive)	> 100 µM (inactive)	53.8 µM (inactive) and 78 µM (inactive)	> 100 µM (inactive)	> 100 µM (inactive)	> 100 µM (inactive)	> 100 µM (inactive)	> 10 µM (inactive)	> 100 µM (inactive)	> 100 µM (inactive)	82.4 µM (inactive) and 65.6 µM (inactive)	> 100 µM (inactive)	> 100 µM (inactive)	> 100 µM (inactive)	> 100 µM (inactive)
O=C(/C=C/c1ccc(Cl)c(Cl)c1)CCN1CCN(CCC(=O)/C=C/c2ccc(Cl)c(Cl)c2)CC1	23.8 µM (inactive)	35.4 µM (inactive)	17.2 µM (inactive)	19.6 µM (inactive)	6.22 µM (inactive)	36.9 µM (inactive)	31.9 µM (inactive)	22.6 µM (inactive)	17 µM (inactive)	14.4 µM (inactive)	18.2 µM (inactive)	–	22.3 µM (inactive)	30.2 µM (inactive)	21.8 µM (inactive)	24.1 µM (inactive)	20.2 µM (inactive)	12.3 µM (inactive)	20.1 µM (inactive)	20.4 µM (inactive)
C[N+]1=C2[B-](C(C)(C)C)=[N+](C(C)(C)C)[B-]2(C(C)(C)C)[N+](C)=C2[B-](C(C)(C)C)=[N+](C(C)(C)C)[B-]21C(C)(C)C (stereo unspecified)	> 100 µM (inactive)	> 100 µM (inactive)	> 100 µM (inactive)	> 100 µM (inactive)	> 100 µM (inactive)	> 100 µM (inactive)	> 100 µM (inactive)	> 100 µM (inactive)	> 100 µM (inactive)	–	> 100 µM (inactive)	> 100 µM (inactive)	> 100 µM (inactive)	> 100 µM (inactive)	> 100 µM (inactive)	> 100 µM (inactive)	> 100 µM (inactive)	> 100 µM (inactive)	> 100 µM (inactive)	> 100 µM (inactive)
